Marks after values point to notes of the source that are not given here.
Legend:
[1] = tested on: male rats; test: 28-day repeated dose oral toxicity study (OECD 407) with GC-MS/LC-MS plasma metabolite profiling, male rats; type: in vivo, rat; conditions: plasma
Excerpt: Drinking water was also offered ad libitum.
The samples were centrifuged for generation of plasma.

[2] = tested on: female rats; test: 28-day repeated dose oral toxicity study (OECD 407) with GC-MS/LC-MS plasma metabolite profiling, female rats
Method: A group of each 5 male and female rats was dosed once daily with the indicated compounds (see Table 5, below for compounds, applied doses and administeration details) over 28 days.
Each dose group in the studies consisted of five rats per sex. Additional groups of each 5 male and female animals served as controls. Before starting the treatment period, animals, which were 62-64 days old when supplied, were acclimatized to the housing and environmental conditions for 7 days. All animals of the animal population were kept under the same constant temperature (20-24±3° C.) and the same constant humidity (30-70%). The animals of the animal population were fed ad libitum. The food to be used was essentially free of chemical or microbial contaminants. Drinking water was also offered ad libitum. Accordingly, the water was free of chemical and microbial contaminants as laid down in the European Drinking Water Directive 98/83/EG. The illumination period was 12 hours light followed by 12 hours darkness (12 hours light, from 6:00 to 18:00, and 12 hours darkness, from 18:00 to 6:00).
In the morning of day 7, 14, and 28, blood was taken from the retroorbital venous plexus from fasted anaesthetized animals. From each animal, 1 ml of blood was collected with EDTA as anticoagulant. The samples were centrifuged for generation of plasma. All plasma samples were covered with a N2 atmosphere and then stored at −80° C. until analysis.
For mass spectrometry-based metabolite profiling analyses plasma samples were extracted and a polar and a non-polar (lipid) fraction was obtained. For GC-MS analysis, the non-polar fraction was treated with methanol under acidic conditions to yield the fatty acid methyl esters. Both fractions were further derivatised with O-methyl-hydroxyamine hydrochloride and pyridine to convert Oxogroups to O-methyloximes and subsequently with a silylating agent before analysis. In LC-MS analysis, both fractions were reconstituted in appropriate solvent mixtures. HPLC was performed by gradient elution on reversed phase separation columns.
Following comprehensive analytical validation steps, the data for each analyte were normalized against data from pool samples. These samples were run in parallel through the whole process to account for process variability. The significance of treatment group values specific for sex, treatment duration and metabolite was determined by comparing means of the treated groups to the means of the respective untreated control groups using WELCH-test and quantified with treatment ratios versus control and p-values.

Structure (SMILES): Cc1cccc(C)c1N(Cn1cccn1)C(=O)CCl [Metazachlor, N-(2,6-dimethylphenyl)-N-(pyrazol-1-ylmethyl)chloroacetamid]
- 4-Hydroxyphenylpyruvate, ratio versus control ([1]; day 7): 2.23*
- Glycerol-3-phosphate, polar fraction, ratio versus control ([1]; day 7): 1.04
- Phosphatidylcholine (C16:1,C18:2), ratio versus control ([1]; day 7): 1.29*
- Phosphatidylcholine (C18:0,C18:1), ratio versus control ([1]; day 7): 1.56*
- Phosphatidylcholine (C18:0,C18:2), ratio versus control ([1]; day 7): 1.4*
- Phytosphingosine, ratio versus control ([1]; day 7): 2.08*
- Lysophosphatidylcholine (C18:1), ratio versus control ([1]; day 7 (Table 2)): 1.1*
- Phosphatidylcholine (C16:0,C20:5), ratio versus control ([1]; day 7 (Table 2)): 1
- alpha-Tocopherol, ratio versus control ([1]; day 7 (Table 2)): 1.8*
- 4-Hydroxyphenylpyruvate, ratio versus control ([1]; day 14): 2.59*
- Glycerol-3-phosphate, polar fraction, ratio versus control ([1]; day 14): 1.63*
- Phosphatidylcholine (C16:1,C18:2), ratio versus control ([1]; day 14): 2.11*
- Phosphatidylcholine (C18:0,C18:1), ratio versus control ([1]; day 14): 2.37*
- Phosphatidylcholine (C18:0,C18:2), ratio versus control ([1]; day 14): 1.55*
- Phytosphingosine, ratio versus control ([1]; day 14): 2.86*
- Lysophosphatidylcholine (C18:1), ratio versus control ([1]; day 14 (Table 2)): 1.49*
- Phosphatidylcholine (C16:0,C20:5), ratio versus control ([1]; day 14 (Table 2)): 1.47*
- alpha-Tocopherol, ratio versus control ([1]; day 14 (Table 2)): 1.3*
- 4-Hydroxyphenylpyruvate, ratio versus control ([1]; day 28): 3.26*
- Glycerol-3-phosphate, polar fraction, ratio versus control ([1]; day 28): 1.52*
- Phosphatidylcholine (C16:1,C18:2), ratio versus control ([1]; day 28): 2.32*
- Phosphatidylcholine (C18:0,C18:1), ratio versus control ([1]; day 28): 2.06*
- Phosphatidylcholine (C18:0,C18:2), ratio versus control ([1]; day 28): 1.51*
- Phytosphingosine, ratio versus control ([1]; day 28): 3.2*
- Lysophosphatidylcholine (C18:1), ratio versus control ([1]; day 28 (Table 2)): 1.33*
- Phosphatidylcholine (C16:0,C20:5), ratio versus control ([1]; day 28 (Table 2)): 1.67*
- alpha-Tocopherol, ratio versus control ([1]; day 28 (Table 2)): 1.49*
- 3-O-Methylsphingosine (d18:1), ratio versus control ([2]; day 7): 5.2*
- 5-O-Methylsphingosine (d18:1), ratio versus control ([2]; day 7): 5.11*
- 14-Methylhexadecanoic acid, ratio versus control ([2]; day 7): 1.18*
- Behenic acid (C22:0), ratio versus control ([2]; day 7): 2.8*
- Cholesterol, ratio versus control ([2]; day 7): 2.52*
- Coenzyme Q9, ratio versus control ([2]; day 7): 2.3*
- DAG (C18:1,C18:2), ratio versus control ([2]; day 7): 1.52*
- Eicosanoic acid (C20:0), ratio versus control ([2]; day 7): 2.17*
- Glucose, ratio versus control ([2]; day 7): 1.4*
- Glycerol phosphate, lipid fraction, ratio versus control ([2]; day 7): 2.41*
- Glycerol, lipid fraction, ratio versus control ([2]; day 7): 1.89*
- Glycerol-3-phosphate, polar fraction, ratio versus control ([2]; day 7): 1.61*
- Heptadecanoic acid (C17:0), ratio versus control ([2]; day 7): 1.53*
- Linoleic acid (C18:cis[9,12]2), ratio versus control ([2]; day 7): 2.33*
- Nervonic acid (C24:cis[15]1), ratio versus control ([2]; day 7): 4.5*
- Palmitic acid (C16:0), ratio versus control ([2]; day 7): 1.96*
- Phosphatidylcholine (C16:0,C20:5), ratio versus control ([2]; day 7): 1.18*
- TAG (C16:0,C18:1,C18:3), ratio versus control ([2]; day 7): 2.84*
- TAG (C16:0,C18:2), ratio versus control ([2]; day 7): 2.65*
- TAG (C18:1,C18:2), ratio versus control ([2]; day 7): 2.65*
- TAG (C18:2,C18:2), ratio versus control ([2]; day 7): 2.42*
- TAG (C18:2,C18:3), ratio versus control ([2]; day 7): 2.42*
- TAG No 01, ratio versus control ([2]; day 7): 1.87*
- TAG No 05, ratio versus control ([2]; day 7): 2.27*
- TAG No 07, ratio versus control ([2]; day 7): 1.97
- dihomo-gamma-Linolenic acid (C20:cis[8,11,14]3), ratio versus control ([2]; day 7): 2.69*
- erythro-Sphingosine, ratio versus control ([2]; day 7): 4.06*
- 3-O-Methylsphingosine (d18:1), ratio versus control ([2]; day 14): 7.58*
- 5-O-Methylsphingosine (d18:1), ratio versus control ([2]; day 14): 7.74*
- 14-Methylhexadecanoic acid, ratio versus control ([2]; day 14): 1.17*
- Behenic acid (C22:0), ratio versus control ([2]; day 14): 4.3*
- Cholesterol, ratio versus control ([2]; day 14): 2.96*
- Coenzyme Q9, ratio versus control ([2]; day 14): 2.09*
- DAG (C18:1,C18:2), ratio versus control ([2]; day 14): 1.92*
- Eicosanoic acid (C20:0), ratio versus control ([2]; day 14): 3.19*
- Glucose, ratio versus control ([2]; day 14): 1.17*
- Glycerol phosphate, lipid fraction, ratio versus control ([2]; day 14): 3.43*
- Glycerol, lipid fraction, ratio versus control ([2]; day 14): 2.34*
- Glycerol-3-phosphate, polar fraction, ratio versus control ([2]; day 14): 1.72*
- Heptadecanoic acid (C17:0), ratio versus control ([2]; day 14): 1.98*
- Linoleic acid (C18:cis[9,12]2), ratio versus control ([2]; day 14): 3.2*
- Nervonic acid (C24:cis[15]1), ratio versus control ([2]; day 14): 5.92*
- Palmitic acid (C16:0), ratio versus control ([2]; day 14): 2.83*
- Phosphatidylcholine (C16:0,C20:5), ratio versus control ([2]; day 14): 1.46*
- TAG (C16:0,C18:1,C18:3), ratio versus control ([2]; day 14): 3.67*
- TAG (C16:0,C18:2), ratio versus control ([2]; day 14): 3.69*
- TAG (C18:1,C18:2), ratio versus control ([2]; day 14): 2.74*
- TAG (C18:2,C18:2), ratio versus control ([2]; day 14): 2.51*
- TAG (C18:2,C18:3), ratio versus control ([2]; day 14): 2.89*
- TAG No 01, ratio versus control ([2]; day 14): 1.99*
- TAG No 05, ratio versus control ([2]; day 14): 4.68*
- TAG No 07, ratio versus control ([2]; day 14): 3.87*
- dihomo-gamma-Linolenic acid (C20:cis[8,11,14]3), ratio versus control ([2]; day 14): 4.76*
- erythro-Sphingosine, ratio versus control ([2]; day 14): 5.79*
- 3-O-Methylsphingosine (d18:1), ratio versus control ([2]; day 28): 5.44*
- 5-O-Methylsphingosine (d18:1), ratio versus control ([2]; day 28): 5.42*
- 14-Methylhexadecanoic acid, ratio versus control ([2]; day 28): 1.19*
- Behenic acid (C22:0), ratio versus control ([2]; day 28): 3.4*
- Cholesterol, ratio versus control ([2]; day 28): 2.72*
- Coenzyme Q9, ratio versus control ([2]; day 28): 1.75*
- DAG (C18:1,C18:2), ratio versus control ([2]; day 28): 2.94*
- Eicosanoic acid (C20:0), ratio versus control ([2]; day 28): 2.49*
- Glucose, ratio versus control ([2]; day 28): 0.99
- Glycerol phosphate, lipid fraction, ratio versus control ([2]; day 28): 2.93*
- Glycerol, lipid fraction, ratio versus control ([2]; day 28): 3.13*
- Glycerol-3-phosphate, polar fraction, ratio versus control ([2]; day 28): 1.55*
- Heptadecanoic acid (C17:0), ratio versus control ([2]; day 28): 2.08*
- Linoleic acid (C18:cis[9,12]2), ratio versus control ([2]; day 28): 3.43*
- Nervonic acid (C24:cis[15]1), ratio versus control ([2]; day 28): 5.03*
- Palmitic acid (C16:0), ratio versus control ([2]; day 28): 2.86*
- Phosphatidylcholine (C16:0,C20:5), ratio versus control ([2]; day 28): 1.26*
- TAG (C16:0,C18:1,C18:3), ratio versus control ([2]; day 28): 5.22*
- TAG (C16:0,C18:2), ratio versus control ([2]; day 28): 3.73*
- TAG (C18:1,C18:2), ratio versus control ([2]; day 28): 3.09*
- TAG (C18:2,C18:2), ratio versus control ([2]; day 28): 4.34*
- TAG (C18:2,C18:3), ratio versus control ([2]; day 28): 4.18*
- TAG No 01, ratio versus control ([2]; day 28): 3.16*
- TAG No 05, ratio versus control ([2]; day 28): 5.27*
- TAG No 07, ratio versus control ([2]; day 28): 4.1*
- dihomo-gamma-Linolenic acid (C20:cis[8,11,14]3), ratio versus control ([2]; day 28): 4.48*
- erythro-Sphingosine, ratio versus control ([2]; day 28): 4.33*
